The results in this text go back to patent publication US9918972B2, “Treatment of leukemia with artemisinin derivatives and combinations with other antineoplastic agents” (UNIVERSITY OF MARYLAND, BALTIMORE, priority 2014, dated 2018).

Broadly, the pIC50 is the IC50 on a negative log10 scale, so that one unit is a factor of ten.

Test [1] relates to MOLM14 cells. Nature of the test: Drug combination analysis (Chou and Talalay), simultaneous 48 h treatment, alamarBlue. The format is cell-based, human. The settings on record: MOLM14, combined with AS, 2.25x single-drug IC50s. The method, then: FIGS. 2A-2B. ART-838 or AS enhanced the cytotoxicity of all six antileukemic drugs tested in MOLM14. […] Each experiment was performed three times in triplicate, and error bars represent the SEM. All panels have error bars but some are too small to be visible. Combination indices (CI) were computed for each drug combination using CompuSyn software, based on the Median Effect Principle and the CI theorem of Chou-Talalay, wherein CI=1 indicates additivity, CI<1 synergism, and CI>1 antagonism.
FIGS. 4A-4D. Effects of ART-838- and AS-containing drug combinations on MOLM14 growth and superoxide generation. […]. CIs were computed as described above. CI<1 indicates synergy, CI=1, additivity, CI>1, antagonism. […] Cells were then loaded with 5 μM MitoSox for 30 min, washed, and analyzed by flow cytometry for MitoSox fluorescence (indicating mitochondrial superoxide) in the FL2 channel. Mean fluorescence intensity (MFI) was normalized to that of vehicle control (0.5% DMSO) with no pretreatment (100%, lower dotted lines). Upper dotted lines show MFI of ART-838- or AS-treated cells. Error bars represent the SEM of three independent experiments.
For each two-drug pair, dose-response curves were generated for each drug individually and for the two drugs combined. […]. […]

For test [2], the system named is MOLM14 cells. Description: alamarBlue cytotoxicity assay, single-drug IC50, 48 h. In kind it is cell-based, human. The method, then: Peripheral wells were filled with sterile water to minimize the effects of evaporation. […] Results were normalized to cells treated with vehicle (≦0.5% DMSO) alone. IC50s were calculated using CompuSyn software and represent the means of at least three experiments performed in triplicate.
A general note: The colour change of resazurin is a common sign of viable cells or microbes.

The subject of test [3] is KOPN8 cells. The description is as above. The format is cell-based. To be noted: Homo sapiens, KOPN-8. The method, then: Cytotoxicity was assessed using alamarBlue assays (Life Technologies, Grand Island, N.Y.; used for IC50 determinations and all drug combinations except the drug combination screen (method described separately below)) or Trypan Blue dye exclusion (Life Technologies, Grand Island, N.Y.; used only for experiments using inhibitors that could interfere with alamarBlue assay performance (NAC, Tiron, DFO)).
Cell lines were seeded in 96-well tissue culture plates at 10^4 cells per well (myeloid leukemia lines) or 2×10^4 cells per well (lymphoid leukemia lines) in culture medium, followed by addition of drugs at the indicated concentrations. 2-4 wells per plate containing media-only were included for background subtraction. Peripheral wells were filled with sterile water to minimize the effects of evaporation.
MOLM14 cells were treated with each of these drugs, alone and in combination with ART-838 or AS at an equipotency ratio based on the IC50s for each drug (Table 1). In Table 1, KOPN8 and MOLM14 cell lines were treated with a range of concentrations of each drug for 48 h then cytotoxicity was measured via alamarBlue assay. Results were normalized to cells treated with vehicle (≦0.5% DMSO) alone. IC50s were calculated using CompuSyn software and represent the means of at least three experiments performed in triplicate. Addition of ART-838 or AS enhanced the cytotoxicity of all six tested drugs across a range of concentrations (FIG. 2). Drug interactions were typically most favorable (more additive/synergistic or less antagonistic) at higher doses.

The test system of test [4] is MOLM14 AML xenografts. Description: Subcutaneous MOLM14 xenograft growth in NSG mice (SOR with AS). In kind it is in vivo. To be noted: SOR plus AS p.o. The method, then:
FIG. 15. AS enhanced in vivo efficacy of Sorafenib (SOR) against acute leukemia xenografts in NSG mice. […] Drug or vehicle were given p.o. on day 3-7, 17-21, and 31-35 when possible. Mouse tumors were measured on the indicated days.
The NSG mice were obtained, maintained and handled as described in the paragraph immediately above. AS was also formulated in Tween 80:ethanol (7:3, v:v) and diluted 1:10 in filtered deionized water immediately before administration. For the human AML xenograft model, 6-12-week-old male NSG mice (>20 g) were transplanted sc with MOLM14 cells on day 0 and drug-treated via oral gavage, as specified in legend. Mice were monitored daily and euthanized when tumors reached an estimated mass of 2000 mg as described in the paragraph immediately above.
Palpable tumors appeared about 2 weeks after transplantation.

Test [5] concerns MOLM14 cells. Description: ROS - mitochondrial superoxide (MitoSOX flow cytometry). The format is cell-based, human. To be noted: for effect on AS-induced superoxide generation: MOLM14, combined with AS, 2.25x IC50s; for effect on AS-induced superoxide generation / effect on ART-838-induced superoxide generation: 16 h; for effect on ART-838-induced superoxide generation: MOLM14, combined with ART-838, 2.25x IC50s. As to the method:
FIGS. 4A-4D. […] CIs were computed as described above. CI<1 indicates synergy, CI=1, additivity, CI>1, antagonism. […] Cells were then loaded with 5 μM MitoSox for 30 min, washed, and analyzed by flow cytometry for MitoSox fluorescence (indicating mitochondrial superoxide) in the FL2 channel. […] Error bars represent the SEM of three independent experiments.
A general note: Flow cytometry measures light scatter and fluorescence of single cells or particles in a stream.

Test [6] concerns MOLM14 cells. Description: Preliminary cytotoxicity of ROS/iron inhibitors (Trypan Blue dye exclusion assays). In kind it is cell-based, human. To be noted: read-out: approximate 48-hour IC50.
For test [7], the system named is MOLM14-luc AML xenografts. Nature of the test: Subcutaneous MOLM14-luc xenograft growth in NSG mice (ARA with ART-838). To be noted: ARA 40 mg/kg/d i.p. plus ART-838 200 mg/kg/d p.o. In kind it is in vivo. As to the method: FIG. 14. ART-838 enhanced in vivo efficacy of ARA against acute leukemia xenografts in NSG mice. NSG mice transplanted subcutaneously with luciferase labeled MOLM14 (MOLM14-luc) AML cells, were treated with vehicle, ARA (“Ara-C”), ART-838 or ART-838 plus ARA starting on day 17 after transplantation. Ara-C (40 mg/kg/d) was given i.p. on day 17, 18, 19, 20, 21 and 24. ART-838 (200 mg/kg/d) was given p.o. on day 17, 20 and 24. Mouse tumors were measured on the indicated days.
Highly immunodeficient NSG mice, obtained originally from Jackson Laboratory (Bar Harbor, Me.), were bred and housed in the UMSOM animal facilities, and handled in a laminar flow hood under aseptic conditions. All experiment procedures and animal care were in compliance with the NIH guidelines for the Care and Use of Laboratory Animals and approved by the UMSOM Institutional Animal Care and Use Committee. ART-838 were formulated in Tween 80:ethanol (7:3, v:v) and diluted 1:10 in filtered deionized water immediately before administration. […] Mice were monitored daily and euthanized when tumors reached an estimated mass of 2000 mg (using the formula: [length×width2]/2, assuming density=1 mg/mm3).
The anti-leukemic efficacy of ART-838 plus ARA was tested in NSG mice transplanted subcutaneously with luciferase labeled MOLM14 (MOLM14-luc) AML cells. […] Mouse tumors were measured with calipers on the indicated days.

Where [8] appears, read: Homo sapiens, MOLM-14, MOLM14, single drug, 48 h, alamarBlue.

pIC50: −log10 of the molar value. “Also recorded” adds a separate entry of the source. Where a name gives a salt, the structure may show the parent alone.

Consider `C[C@]12O[C@H](C[C@]1(O)CO)n1c3ccccc3c3c4c(c5c6ccccc6n2c5c31)CNC4=O` [LES, lestaurtinib], for which the “Combination index (CI), interaction” value in test [1] is listed as 1.5. The results for the negative-log IC50 (pIC50) in test [2] (setting [8]) and in test [3] were 8.52 and 7.35, respectively.
`CNC(=O)c1cc(Oc2ccc(NC(=O)Nc3ccc(Cl)c(C(F)(F)F)c3)cc2)ccn1` [SOR, sorafenib]: the “tumor growth (tumor size on day 24)” value in test [4] is “inhibited tumor growth substantially more than did either drug alone”. Further, the pIC50 was 8.40 in test [2] (setting [8]) and 5.38 in test [3]. The “effect on AS-induced superoxide generation” value in test [5] is on record as “reduced”.
Turning to `CC(=O)N[C@@H](CS)C(=O)O` [NAC], the pIC50 in test [6] (MOLM14, preliminary experiments) is about 1.60.
`C[C@@H]1CCC2[C@@H](C)[C@@H](CC(COP(=O)(Oc3ccccc3)Oc3ccccc3)C[C@H]3O[C@@H]4O[C@@]5(C)CCC6[C@H](C)CCC([C@H]3C)[C@]64OO5)O[C@@H]3O[C@@]4(C)CCC1[C@@]23OO4` (stereo partly shown) [ART-838, artemisinin-derived trioxane diphenylphosphate dimer 838] gave a pIC50 in test [2] (MOLM14 (AML) cell line) of 7.60. In test [5] (MOLM14, drug alone, 2.25x IC50, 16 h), the “mitochondrial superoxide (MitoSox MFI)” value was “increased; also recorded: induced superoxide to greater levels than AS”.
For `COc1cc([C@@H]2c3cc4c(cc3[C@@H](O[C@@H]3O[C@@H]5CO[C@@H](C)O[C@H]5[C@H](O)[C@H]3O)[C@H]3COC(=O)[C@H]23)OCO4)cc(OC)c1O` [ETO, etoposide], the negative logarithm of the IC50 (pIC50) in test [3] was 6.82. For the same compound, in test [5], the “effect on ART-838-induced superoxide generation” value is listed as “further enhanced” and the “effect on AS-induced superoxide generation” value is given as “further enhanced”.
Consider `COc1cccc2c1C(=O)c1c(O)c3c(c(O)c1C2=O)C[C@@](O)(C(=O)CO)C[C@@H]3O[C@H]1C[C@H](N)[C@H](O)[C@H](C)O1` [DOX, doxorubicin], for which the negative-log IC50 (pIC50) in test [2] (setting [8]) is 7.10. In addition, the negative-log IC50 (pIC50) in test [3] was 7.52. In test [5], the “effect on ART-838-induced superoxide generation” value is recorded as “further enhanced” and the “effect on AS-induced superoxide generation” value is “further enhanced”.
Turning to `Nc1ccn([C@@H]2O[C@H](CO)[C@@H](O)[C@@H]2O)c(=O)n1` [ARA, cytarabine], the pIC50 in test [3] is 7.14. Also, the “effect on AS-induced superoxide generation” value in test [5] is listed as “further enhanced”. Besides, the “tumor growth (tumor size on day 24)” value in test [7] was “inhibited tumor growth substantially more than did either drug alone”.
Consider `CC(=O)N(O)CCCCCNC(=O)CCC(=O)N(O)CCCCCNC(=O)CCC(=O)N(O)CCCCCN` [DFO, deferoxamine mesylate], for which, in test [6] (Homo sapiens, MOLM-14, 48 h), the pIC50 was about 4.96.
Turning to `O=S(=O)(O)c1cc(O)c(O)c(S(=O)(=O)O)c1` [Tiron], in test [6] (Homo sapiens, MOLM-14, 48 h, MOLM14, preliminary experiments), the pIC50 is about 3.00.
